Reference: US9615580B2, “Fused heterocyclic compound and use thereof for pest control” (Sumitomo Chemical Company, Limited, priority 2012, dated 2017)

How the values were obtained:
Type in all cases: in vivo
[1] = tested on: Aphis gossypii; assay: Test Example 1: foliar spray on cucumber seedling inoculated with Aphis gossypii; conditions: 144 h, 500 ppm active ingredient, 20 ml sprayed on cucumber seedling, 6 days after spraying
Procedure: On the other hand, on a cucumber seedling (the first true leaf stage) planted in a plastic cup was inoculated with about 30 Aphis gossypii (whole stage), and leaving it for a day. Twenty (20) ml of each test solution was sprayed on the seedling. Six (6) days after spraying, the number of the surviving Aphis gossypii parasitized on the leaves of the cucumber was examined, and a control value was calculated according to the following equation: Controlling value (%)={1−(Cb×Tai)/(Cai×Tb)}×100 wherein the symbols in the above equation represent as follows: Cb: the number of insects in a non-treated section before treatment Cai: the number of insects in a non-treated section on observation Tb: the number of insects in a treated section before treatment Tai: the number of insects in a […] the non-treated section represents a section where the test diluted solution prepared by diluting the formulation without the present compound as in Formulation Example 5 with the same amount of water as in the treated-section was used.

[2] = tested on: Nilaparvata lugens; assay: Test Example 4: soil drench of rice seedling, Nilaparvata lugens larvae released; conditions: 144 h, 5 ml drench at foot of rice seedling, larvae released after 7 days, counted 6 days later
Procedure: On the other hand, a rice seedling (2 weeks after sowing, the second leaf stage) planted in a plastic cup was drenched at its foot with 5 ml of each test solution, and kept in a greenhouse of 25° C. for 7 days. Twenty (20) third-fourth instar larvae of Nilaparvata lugens were released, and further kept in the greenhouse for 6 days, then the number of insect of living Nilaparvata lugens parasitized on the rice was examined, and a control value was calculated according to the following equation: Controlling value (%)={1−(Cb×Tai)/(Cai×Tb)}×100 wherein the symbols in the above equation represent as follows: Cb: the number of insects in a non-treated section before treatment Cai: the number of insects in a non-treated section on observation Tb: the number of insects in a treated section before treatment Tai: the number of insects in a […] the non-treated section represents a section where the test diluted solution prepared by diluting the formulation without the present compound as in Formulation Example 5 with the same amount of water as in the treated-section was used.

[3] = tested on: Plutella xylostella; assay: Test Example 6: spray on cabbage, Plutella xylostella larvae released; conditions: 120 h, 20 mL/cup sprayed on cabbage, second instar larvae, 25° C., 5 days, read-out: death rate
Procedure: Each test solution was prepared by diluting a formulation containing any of the present compounds 1-4, 1-5, 1-6, 1-8, 1-9, 1-10, 1-16, 1-18, 1-19, 1-20, 1-29, 1-46, 1-48, 1-49, 1-50, 1-63 and 1-76 as obtained in Formulation Example 5, with water so as to give 500 ppm of the concentration of the active ingredient.
On the other hand, Cabbage (the third leaf stage) planted in a polyethylene cup was sprayed with 20 mL/cup of each test solution. After the test solution was dried, the aerial part was cut off, and then placed in a 50 mL volume cup. Five (5) second instar larvae of Plutella xylostella were released into the cup, and the cup was sealed with a lid. After the cup was kept at 25° C. for 5 days, the number of living insects was counted. A death rate was calculated according to the following equation: Death rate (%)=(Number of dead insects/Number of tested insects)×100

[4] = tested on: Musca domestica; assay: Test Example 8: treated filter paper with sucrose bait, Musca domestica; conditions: 500 ppm, 0.7 ml on filter paper, female imagoes, after 24 hours
Procedure: Each test solution was prepared by diluting a formulation containing any of the present compounds 1-4, 1-6, 1-8, 1-9, 1-10, 1-63 and 1-95 as obtained in Formulation Example 5, with water so as to give 500 ppm of the concentration of the active ingredient.
(§1) A filter paper having a diameter of 5.5 cm was spread on the bottom of a polyethylene cup having a diameter of 5.5 cm and each test solution (0.7 ml) was added dropwise onto the filter paper. As a bait sucrose (30 mg) was uniformly placed on the filter paper. Into the polyethylene cup, 10 female imagoes of Musca domestica were released and the cup was sealed with a lid. After 24 hours, the number of surviving Musca domestica was examined and the death rate of the pest was calculated according to the following equation: Death rate (%)=(Number of dead insects/Number of tested insects)×100

[5] = tested on: Nilaparvata lugens; assay: Test Example 3: spray on rice seedling, Nilaparvata lugens larvae released; conditions: 144 h, 10 ml sprayed on rice seedling, third-fourth instar larvae, after 6 days
Procedure: On the other hand, a rice seedling (the second leaf stage) planted in a polyethylene cup was sprayed with 10 ml of each test solution. After air-drying, 20 third-fourth instar larvae of Nilaparvata lugens were released, and kept in the greenhouse of 25° C. After 6 days, the number of insect of living Nilaparvata lugens parasitized on the rice was examined, and a control value was calculated according to the following equation: Controlling value (%)={1−(Cb×Tai)/(Cai×Tb)}×100 wherein the symbols in the above equation represent as follows: Cb: the number of insects in a non-treated section before treatment Cai: the number of insects in a non-treated section on observation Tb: the number of insects in a treated section before treatment Tai: the number of insects in a […] the non-treated section represents a section where the test diluted solution prepared by diluting the formulation without the present compound as in Formulation Example 5 with the same amount of water as in the treated-section was used.

[6] = tested on: Laodelphax striatella; assay: Test Example 12: spray on rice seedling, Laodelphax striatella larvae released; conditions: 50 ppm, 10 ml sprayed on rice seedling, third instar larvae, after 5 days; method equation is a death rate
Procedure: (§2) Any of the present compounds 1-6, 1-8, 1-9 and 1-10 (10 mg) was dissolved in a mixed solution (0.1 ml) of xylene, DMF and Sorpol® 3005X (manufactured by Toho Chemical Industry Co., Ltd.) in a ratio of 4:4:1 to obtain a formulation. Each formulation was diluted with water so as to give 50 ppm of the concentration of the active ingredient.
(§3) On the other hand, a rice seedling (2.5 leaf stage) planted in a polyethylene cup was sprayed with 10 ml of each test solution. After air-drying the seedling, 10 third instar larvae of Laodelphax striatella were released, and kept in the greenhouse of 25° C. After 5 days, the number of living insects was counted. A death rate was calculated according to the following equation: Death rate (%)={10−(Number of living insects after 5 days)/10}×100

[7] = tested on: Sogatella furcifera; assay: Test Example 13: spray on rice seedling, Sogatella furcifera larvae released; conditions: 50 ppm, 10 ml sprayed on rice seedling, third instar larvae, after 5 days; method equation is a death rate
Procedure: as §2
as §3, with “Sogatella furcifera” for “Laodelphax striatella”, “days)/10}×100 As a result, in the treated-section using each test solution containing each of the present compounds 1-6, 1-8, 1-9 and 1-10, the control value was 100%.” for “days)/10}×100”

[8] = tested on: Blattalla germanica; assay: Test Example 9: treated filter paper with sucrose bait, Blattalla germanica; conditions: 500 ppm, 0.7 ml on filter paper, male imagoes, after 6 hours
Procedure: Each test solution was prepared by diluting a formulation containing any of the present compounds 1-9 and 1-19 as obtained in Formulation Example 5, with water so as to give 500 ppm of the concentration of the active ingredient.
as §1, with “Sucrose (30 mg) as” for “As”, “bait” for “bait sucrose (30 mg)”, “2 male” for “10 female”, “Blattalla germanica” for “Musca domestica”, “6” for “24”

Row | SMILES | pest or weed control at 500 ppm [1] | pest or weed control at 500 ppm [2] | pest or weed control at 500 ppm [3] | death rate [4] | pest or weed control at 500 ppm [5] | control value [6] | control value [7] | death rate [8]
1 | CCSc1cccnc1-c1nc2cc([S+]([O-])C(F)(F)F)ccc2o1 (centres unmarked) [present compound 1-63, 2-(3-ethylsulfanylpyridine-2-yl)-5-(trifluoromethylsulfinyl)benzoxazole] | ≥ 90% | ≥ 90% | ≥ 80% | 100% | – | – | – | –
2 | CCSc1cccnc1-c1nc2cc(SC(F)(F)F)ccc2o1 [present compound 1-6, 2-(3-ethylsulfanylpyridine-2-yl)-5-(trifluoromethylsulfanyl)benzoxazole] | ≥ 90% | ≥ 90% | ≥ 80% | 100% | ≥ 90% | 100% | 100% | –
3 | CCS(=O)(=O)c1cccnc1-c1nc2cc(SC(F)(F)F)ccc2o1 [present compound 1-8, 2-(3-ethylsulfonylpyridin-2-yl)-5-(trifluoromethylsulfanyl)benzoxazole] | ≥ 90% | ≥ 90% | ≥ 80% | 100% | ≥ 90% | 100% | 100% | –
4 | CCSc1cc(C(F)(F)F)cnc1-c1nc2cc([S+]([O-])C(F)(F)F)cnc2o1 (centres unmarked) [present compound 1-65, 2-(3-ethylsulfanyl-5-trifluoromethylpyridine-2-yl)-6-(trifluoromethylsulfinyl)oxazolo[5,4-b]pyridine] | ≥ 90% | – | – | – | – | – | – | –
5 | CCS(=O)(=O)c1cccnc1-c1nc2cc(S(=O)(=O)C(F)(F)F)ccc2o1 [present compound 1-10, 2-(3-ethylsulfonylpyridin-2-yl)-5-(trifluoromethylsulfonyl)benzoxazole] | ≥ 90% | ≥ 90% | ≥ 80% | 100% | ≥ 90% | 100% | 100% | –
6 | CCS(=O)(=O)c1cc(C(F)(F)F)cnc1-c1nc2cc(SC(F)(F)F)ccc2o1 [present compound 1-18, 2-(3-ethylsulfonyl-5-trifluoromethylpyridine-2-yl)-5-(trifluoromethylsulfanyl)benzoxazole] | ≥ 90% | – | ≥ 80% | – | ≥ 90% | – | – | –
7 | CCSc1cc(C(F)(F)F)cnc1-c1nc2cc(SC(F)(F)F)ccc2o1 [present compound 1-16, 2-(3-ethylsulfanyl-5-trifluoromethylpyridine-2-yl)-5-(trifluoromethylsulfanyl)benzoxazole] | – | – | ≥ 80% | – | – | – | – | –
8 | CCS(=O)(=O)c1cccnc1-c1nc2cc([S+]([O-])C(F)(F)F)cnc2o1 (centres unmarked) [present compound 1-4, 2-(3-ethylsulfonylpyridin-2-yl)-6-(trifluoromethylsulfinyl)oxazolo[5,4-b]pyridine] | ≥ 90% | ≥ 90% | ≥ 80% | 100% | ≥ 90% | – | – | –
9 | CCS(=O)(=O)c1cc(C(F)(F)F)cnc1-c1nc2cc(S(=O)(=O)C(F)(F)F)ccc2o1 [present compound 1-20, 2-(3-ethylsulfonyl-5-trifluoromethylpyridine-2-yl)-5-(trifluoromethylsulfonyl)benzoxazole] | ≥ 90% | – | ≥ 80% | – | – | – | – | –
10 | CCS(=O)(=O)c1cccnc1-c1nc2cc(S(=O)(=O)C(F)(F)F)cnc2o1 [present compound 1-5, 2-(3-ethylsulfonylpyridin-2-yl)-6-(trifluoromethylsulfonyl)oxazolo[5,4-b]pyridine] | ≥ 90% | – | ≥ 80% | – | – | – | – | –
11 | CCS(=O)(=O)c1cccnc1-c1nc2cc([S+]([O-])C(F)(F)F)ccc2o1 (centres unmarked) [present compound 1-9, 2-(3-ethylsulfonylpyridin-2-yl)-5-(trifluoromethylsulfinyl)benzoxazole] | ≥ 90% | ≥ 90% | ≥ 80% | 100% | ≥ 90% | 100% | 100% | 100%
12 | CCS(=O)(=O)c1ccc[n+]([O-])c1-c1nc2cc(S(=O)(=O)C(F)(F)F)ccc2o1 [present compound 1-76] | ≥ 90% | ≥ 90% | ≥ 80% | – | ≥ 90% | – | – | –
13 | CCS(=O)(=O)c1cc(C(F)(F)F)cnc1-c1nc2cc([S+]([O-])C(F)(F)F)ccc2o1 (centres unmarked) [present compound 1-19, 2-(3-ethylsulfonyl-5-trifluoromethylpyridine-2-yl)-5-(trifluoromethylsulfinyl)benzoxazole] | ≥ 90% | ≥ 90% | ≥ 80% | – | ≥ 90% | – | – | 100%
